Values after ≈ are worked out from the molar mass of the structure shown. Counter-ions that a name gives are not always drawn. Like-named read-outs stand apart in the source and are kept apart here.
Tests used:
Experiment in all cases: Antibacterial activity, minimum inhibition concentration (method of The Chemotherapy Association, Japan)
Assay type in all cases: cell-based
Proteus vulgaris OX-19 = details: Proteus vulgaris
Source text: (§1) The abbreviations A to P will be used in the following Tables 2 to 8.
(§2) Test results are shown in terms of the minimum inhibition concentration (µg/mℓ.) in the following Tables 2 to 8.

Proteus rettgeri NIH-96 = details: Providencia rettgeri
Source text: as §1, §2

[1] = test system: Pseudomonas aeruginosa NCTC-10490; details: Pseudomonas aeruginosa
Procedure, shortened: (§3)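 MIC (µg/mℓ), Japanese Chemotherapy Assoc. standard method.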

[2] = test system: Proteus inconstans NIH-118; details: Providencia alcalifaciens
Procedure, shortened: as §3

[3] = test system: Staphylococcus aureus 6538-P
Procedure, shortened: as §3

[4] = test system: Enterobactor cloacae NCTC-9394; details: strain N: Enterobactor cloacae NCTC-9394; read-out: minimum inhibition concentration
Procedure, shortened: as §3

Escherichia coli NIHJ = details: Escherichia coli, strain K: Escherichia coli NIHJ; read-out: minimum inhibition concentration
Procedure, shortened: as §3

[5] = test system: Citrobactor freundii NIH-10018 -68; details: strain O: Citrobactor freundii NIH-10018 -68; read-out: minimum inhibition concentration
Procedure, shortened: as §3

[6] = test system: Proteus mirabillis B-30-2 IFO-3849; details: strain G: Proteus mirabillis B-30-2 IFO-3849; read-out: minimum inhibition concentration
Procedure, shortened: as §3

Serratia marcescens 1023 = details: Serratia marcescens, 1023, strain E: Serratia marcescens 1023; read-out: minimum inhibition concentration
Procedure, shortened: as §3

Escherichia coli NIHJC-2 = details: Escherichia coli, NIHJC2, strain L: Escherichia coli NIHJC-2; read-out: minimum inhibition concentration
Procedure, shortened: as §3

Klebsiella pneumoniae = details: Klebsiella pneumoniae, strain C: Klebsiella pneumoniae; read-out: minimum inhibition concentration
Procedure, shortened: as §3

Proteus morgani Kono = details: strain J: Proteus morgani Kono; read-out: minimum inhibition concentration
Procedure, shortened: as §3

[7] = test system: Bacillus subtilis ATCC 6633; details: Bacillus subtilis, ATCC6633, strain B: Bacillus subtilis ATCC 6633; read-out: minimum inhibition concentration
Procedure, shortened: as §3

[8] = test system: Serratia marcescens IFO-3736; details: Serratia marcescens, IFO3736, strain F: Serratia marcescens IFO-3736; read-out: minimum inhibition concentration
Procedure, shortened: as §3

[9] = test system: Salmonella typhimurium 3173; details: Salmonella enterica, TYPHIMURIUM, strain D: Salmonella typhimurium 3173; read-out: minimum inhibition concentration
Procedure, shortened: as §3

[10] = OX19, strain H: Proteus vulgaris OX-19, read-out: minimum inhibition concentration
[11] = NIH96, strain I: Proteus rettgeri NIH-96, read-out: minimum inhibition concentration
[12] = NCTC10490, strain M: Pseudomonas aeruginosa NCTC-10490, read-out: minimum inhibition concentration
[13] = NIH118, strain P: Proteus inconstans NIH-118, read-out: minimum inhibition concentration
[14] = strain A: Staphylococcus aureus 6538-P, read-out: minimum inhibition concentration

SMILES	MIC [4]	MIC (Escherichia coli NIHJ)	MIC (Proteus vulgaris OX-19; [10])	MIC (Proteus rettgeri NIH-96; [11])	MIC [1, 12]	MIC [3, 14]	MIC [5]	MIC [6]	MIC (Serratia marcescens 1023)	MIC (Escherichia coli NIHJC-2)	MIC (Klebsiella pneumoniae)	MIC (Proteus morgani Kono)	MIC [7]	MIC [8]	MIC [9]	other results
CC(=O)OCC1=C(C(=O)O)N2C(=O)C(NC(=O)Cc3cccs3)C2SC1 (stereo not shown) [Cephalo-thin Na salt, reference compound]	> 100 µg/mL	25 µg/mL														MIC (Proteus vulgaris OX-19; OX19, read-out: minimum inhibition concentration, strain H: Proteus vulgaris OX-19): > 100 µg/mL; MIC (Proteus rettgeri NIH-96; NIH96, read-out: minimum inhibition concentration, strain I: Proteus rettgeri NIH-96): > 100 µg/mL; MIC ([1]; NCTC10490, read-out: minimum inhibition concentration): > 100 µg/mL; MIC ([2]; NIH118, read-out: minimum inhibition concentration): > 100 µg/mL; MIC ([3]; Staphylococcus aureus, 6538P, read-out: minimum inhibition concentration, strain A: Staphylococcus aureus 6538-P): 0.1 µg/mL
CC(=O)OCC1=C(C(=O)O)N2C(=O)C(NC(=O)C(=C(Cl)Cl)c3cccs3)[C@H]2SC1 (stereo partly shown) [Compound 41, 7-[2-dichloromethylene-2-(2-thienyl)acetamido]-3-acetoxymethyl-3-cephem-4-carboxylic acid]	50 µg/mL (≈ 105 µM)	0.39 µg/mL (≈ 0.817 µM)	0.39 µg/mL (≈ 0.817 µM)	50 µg/mL (≈ 105 µM)	25 µg/mL (≈ 52.4 µM)	0.2 µg/mL (≈ 0.419 µM)										MIC [2, 13]: 1.56 µg/mL (≈ 3.27 µM)
CC(=O)OCC1=C(C(=O)O)N2C(=O)C(NC(=O)C(=C(Cl)Cl)c3ccsc3)[C@H]2SC1 (stereo partly shown) [Compound 40, 7-[2-dichloromethylene-2-(3-thienyl)acetamido]-3-acetoxymethyl-3-cephem-4-carboxylic acid]	100 µg/mL (≈ 209 µM)	1.56 µg/mL (≈ 3.27 µM)	25 µg/mL (≈ 52.4 µM)	0.39 µg/mL (≈ 0.817 µM)	25 µg/mL (≈ 52.4 µM)	0.39 µg/mL (≈ 0.817 µM)										MIC [2, 13]: 25 µg/mL (≈ 52.4 µM)
Cn1nnnc1SCC1=C(C(=O)O)N2C(=O)C(NC(=O)C(=C(Cl)Cl)c3cccs3)C2SC1 (stereo not drawn) [Compound 39, 7-[2-dichloromethylene-2-(2-thienyl)acetamido]-3-(l-methyl-lH-tetrazol-5-yl)thiomethyl-3-cephem-4-carboxylic acid]	12.5 µg/mL (≈ 23.4 µM)	0.39 µg/mL (≈ 0.731 µM)	50 µg/mL (≈ 93.7 µM)	0.05 µg/mL (≈ 0.0937 µM)	6.25 µg/mL (≈ 11.7 µM)	0.2 µg/mL (≈ 0.375 µM)										MIC [2, 13]: 3.12 µg/mL (≈ 5.86 µM)
Cn1nnnc1SCC1=C(C(=O)O)N2C(=O)C(NC(=O)C(=CCl)c3csc(N)n3)C2SC1 (stereo not shown) [11-(3), 7-[2-chloromethylene-2-(2-aminothiazol-4-yl)-acetamido]-3-(1-methyl-lH-tetrazol-5-yl)thiomethyl-3-cephem-4-carboxylic acid sodium salt]	0.2 µg/mL	< 0.00625 µg/mL	0.025 µg/mL	< 0.00625 µg/mL	1.56 µg/mL	0.39 µg/mL	0.78 µg/mL	0.39 µg/mL	6.25 µg/mL	0.78 µg/mL	0.78 µg/mL	0.2 µg/mL	3.12 µg/mL	0.78 µg/mL	0.78 µg/mL	
CC(=O)OCC1=C(C(=O)O)N2C(=O)C(NC(=O)C(=C(Cl)Cl)c3cccn3C)[C@H]2SC1 (stereo partly shown) [Compound 36, 7-[2-dichloromethylene-2-(1-methyl-2-pyrrolyl)acetamido]-3-acetoxymethyl-3-cephem-4-carboxylic acid]	> 100 µg/mL	50 µg/mL (≈ 105 µM)	50 µg/mL (≈ 105 µM)	1.56 µg/mL (≈ 3.29 µM)	> 100 µg/mL	0.78 µg/mL (≈ 1.64 µM)	> 100 µg/mL	> 100 µg/mL	100 µg/mL (≈ 211 µM)	> 100 µg/mL	> 100 µg/mL	> 100 µg/mL	12.5 µg/mL (≈ 26.4 µM)	> 100 µg/mL	> 100 µg/mL	
CC(=O)OCC1=C(C(=O)O)N2C(=O)C(NC(=O)C(=C(Cl)Cl)c3csc(NC(=O)OC(C)(C)C)n3)C2SC1 (stereo not shown) [5-(1), 7-[2-dichloromethylene-2-(2-tert-butoxycarbonyl-aminothiazol-4-yl)acetamido]-3-acetoxymethyl-3-cephem-4-carboxylic acid]	12.5 µg/mL (≈ 21.1 µM)	0.1 µg/mL (≈ 0.169 µM)	0.39 µg/mL (≈ 0.657 µM)	< 0.025 µg/mL	12.5 µg/mL (≈ 21.1 µM)	1.56 µg/mL (≈ 2.63 µM)	25 µg/mL (≈ 42.1 µM)	12.5 µg/mL (≈ 21.1 µM)	25 µg/mL (≈ 42.1 µM)	25 µg/mL (≈ 42.1 µM)	12.5 µg/mL (≈ 21.1 µM)	12.5 µg/mL (≈ 21.1 µM)	25 µg/mL (≈ 42.1 µM)	12.5 µg/mL (≈ 21.1 µM)	12.5 µg/mL (≈ 21.1 µM)	
Cn1nnnc1SCC1=C(C(=O)O)N2C(=O)C(NC(=O)C(=C(Cl)Cl)c3ccsc3)C2SC1 (stereo not drawn) [Compound 35, 7-[2-dichloromethylene-2-(3-thienyl)acetamido]-3-(l-methyl-lH-tetrazol-5-yl)thiomethyl-3-cephem-4-carboxylic acid]	12.5 µg/mL (≈ 23.4 µM)	3.12 µg/mL (≈ 5.86 µM)	25 µg/mL (≈ 46.9 µM)	0.1 µg/mL (≈ 0.187 µM)	12.5 µg/mL (≈ 23.4 µM)	0.2 µg/mL (≈ 0.375 µM)	100 µg/mL (≈ 187 µM)	100 µg/mL (≈ 187 µM)	3.12 µg/mL (≈ 5.86 µM)	50 µg/mL (≈ 93.7 µM)	50 µg/mL (≈ 93.7 µM)	> 100 µg/mL	3.12 µg/mL (≈ 5.86 µM)	100 µg/mL (≈ 187 µM)	25 µg/mL (≈ 46.9 µM)	
CC(=O)OCC1=C(C(=O)O)N2C(=O)C(NC(=O)C(=C(Cl)Cl)c3ccc(Br)s3)[C@H]2SC1 (stereo partly shown) [Compound 32, 7-[2-dichloromethylene-2-(5-bromo-2-thienyl)acetamido]-3-acetoxymethyl-3-cephem-4-carboxylic acid]	> 100 µg/mL	25 µg/mL (≈ 44.9 µM)	100 µg/mL (≈ 180 µM)	0.78 µg/mL (≈ 1.4 µM)	50 µg/mL (≈ 89.9 µM)	0.1 µg/mL (≈ 0.18 µM)	> 100 µg/mL	> 100 µg/mL	12.5 µg/mL (≈ 22.5 µM)	> 100 µg/mL	> 100 µg/mL	> 100 µg/mL	6.25 µg/mL (≈ 11.2 µM)	> 100 µg/mL	> 100 µg/mL	
COc1ccc(C(C(=O)NC2C(=O)N3C(C(=O)O)=C(COC(C)=O)CS[C@H]23)=C(Cl)Cl)cc1 (stereo partly shown) [Compound 27, 7-[2-dichloromethylene-2-(4-methoxyphenyl)acetamido]-3-acetoxymethyl-3-cephem-4-carboxylic acid]	> 100 µg/mL	100 µg/mL (≈ 199 µM)	> 100 µg/mL	3.12 µg/mL (≈ 6.23 µM)	100 µg/mL (≈ 199 µM)	> 100 µg/mL	> 100 µg/mL	> 100 µg/mL	6.25 µg/mL (≈ 12.5 µM)	> 100 µg/mL	> 100 µg/mL	> 100 µg/mL	3.12 µg/mL (≈ 6.23 µM)	> 100 µg/mL	> 100 µg/mL	
CC(=O)OCC1=C(C(=O)O)N2C(=O)C(NC(=O)C(=C(Cl)Cl)c3ccco3)[C@H]2SC1 (stereo partly shown) [Compound 33, 7-[2-dichloromethylene-2-(2-furyl)acetamido]-3-acetoxymethyl-3-cephem-4-carboxylic acid]	25 µg/mL (≈ 54.2 µM)	1.56 µg/mL (≈ 3.38 µM)	6.25 µg/mL (≈ 13.5 µM)	0.1 µg/mL (≈ 0.217 µM)	12.5 µg/mL (≈ 27.1 µM)	0.39 µg/mL (≈ 0.845 µM)	50 µg/mL (≈ 108 µM)	100 µg/mL (≈ 217 µM)	25 µg/mL (≈ 54.2 µM)	100 µg/mL (≈ 217 µM)	100 µg/mL (≈ 217 µM)	> 100 µg/mL	6.25 µg/mL (≈ 13.5 µM)	100 µg/mL (≈ 217 µM)	50 µg/mL (≈ 108 µM)	

Reference: patent EP0048954A2, “Beta-lactam compounds, process for the preparation thereof and intermediate products for the preparation thereof” (SAGAMI CHEMICAL RESEARCH CENTER, priority 1980, dated 1982)
